These results are taken from US20090202574A1, “METHODS OF IMMUNE OR HAEMATOLOGICAL ENHANCEMENT, INHIBITING TUMOUR FORMATION OR GROWTH, AND TREATING OR PREVENTING CANCER” (priority 2004, published 2009).

The test system of one test is EL-4 target cells. Kind of test: Anti-tumour CTL and/or NK cell cytolytic activity of splenocytes against EL-4 target cells. The settings on record: Example 18; mice fed control diet.
In a further test the test system is EL-4 tumours. Nature of the test: EL-4 tumour growth in mice (s.c. flank tumour model). The format is in vivo, C57BL/6 mice. The note with it: for EL-4 tumour response: Example 18, 28 g Fe-Lf per 2.4 Kg diet, drugs i.p. at ~0.4 to 0.5 cm.
Test [1] relates to Lewis lung carcinoma (LLC) tumours. Nature of the test: Lewis lung carcinoma tumour growth in mice. The settings on record: Example 18; 28 g Fe-Lf per 2.4 Kg diet; epirubucin 15 mg/Kg i.p. The format is in vivo, C57BL/6 mice. The method, then:
Tumors were established by s.c. injection of 2×10^5 EL-4 cells into the left flank of mice, and growth determined by measuring two perpendicular diameters. Animals were euthanased when tumors reached more than 1.0 cm in diameter, in accord with Animal Ethics Approval (University of Auckland). All experiments included 5 mice per treatment group, unless otherwise indicated. Paclitaxel (30 mg dissolved in 5 ml of Cremophor® EL and dehydrated alcohol) was diluted in 0.9% NaCl and administered i.p. at 30 mg/Kg. Doxorubucin in water was injected i.p. at 15 mg/Kg. The drugs were injected in a volume of 0.01 to 0.02 ml/g body weight. The expression vector encoding mouse B7-1 was prepared by cesium chloride gradient centrifugation, and diluted to 5 μg/μl in a solution of 5% glucose in 0.01% Triton X-100. It was mixed in a ratio of 1:1 (wt:wt) with DOTAP cationic liposomes (Boehringer Mannheim, Germany). Tumors were injected with 180 μl of DNA (180 μg)/liposome complexes, as described previously (Kanwar, et al., 1999 and Kanwar, et al., 2000).
Mice were fed the control diet, and the same diet supplemented with 28 g of 100% Fe-saturated lactoferrin per 2.4 Kg of diet. EL-4 (2×10^5), Lewis lung carcinoma (LLC, 2×10^5), and B16 melanoma (2×10^5) tumour cells were injected into the left flanks of C57BL/6 mice following two weeks on the Lf diets, or control diet. […]

For another test, the system named is IL-18. Nature of the test: IL-18 production by cultured intestinal loops. The format is cell-based, mice. The settings on record: Example 20; 400 and 800 μg/ml; 48 h. The method, then:
Cytokine levels in the supernatants of homogenates of the small intestine were determined using a “sandwich” ELISA kit (Endogen, Woburn, Mass.). They were detected within standard curve ranges of 15-375 pg/ml for IL-4, 0-2450 pg/ml for IL-5, 15-1000 pg/ml for TNF-α, 0-3000 pg/ml for IFN-γ, 37-3000 pg/ml for IL-10, 31.3-2000 pg/ml for IL-12, and 31.3-2000 pg/ml for IL-18, respectively. Quantification of nitrite, indicative of NO production, was carried out by the Griess reaction (Sigma, USA). The results are expressed as the mean nitrite concentration (μM)±SD.
100% Fe-saturated Lf, natural Lf (less than 20% iron saturated), and bovine serum albumin control were added at 400 and 800 μg/ml to intestinal loops (2.5 cm segments of the small intestine) prepared from healthy 6 to 7 week-old female mice, which were kept in culture for 48 h. IL-18 levels released by the intestinal loops, and present in the supernatants of homogenates of the small intestine were determined using a “sandwich” ELISA kit as described above.

Method for EL-4 target cells: Splenocytes were harvested 28 days following tumour cell injection, as specified. They were incubated at 37° C. with EL-4 target cells in graded E:T ratios in 96-well round-bottom plates. After a 4-hour incubation, 50 μl of supernatant was collected, and lysis was measured using the Cyto Tox 96 Assay Kit (Promega, Madison, Wis., USA). Background controls for non-specific target and effector cell lysis were included. After background subtraction, percentage of cell lysis was calculated using the formula: 100× (experimental-spontaneous effector-spontaneous target/maximum target-spontaneous target).

In the case of `O=c1[nH]cc(F)c(=O)[nH]1` [fluorouracil, reference compound], in the test on EL-4 target cells, the “effect of drug alone on anti-tumour cytolytic activity” value (shortened to “effect of drug alone”) is “only slightly enhanced”.
For `COc1cccc2c1C(=O)c1c(O)c3c(c(O)c1C2=O)C[C@@](O)(C(=O)CO)C[C@@H]3O[C@H]1C[C@H](N)[C@H](O)[C@H](C)O1` [doxorubicin, reference compound], the tumour response entry in the test with EL-4 tumours (Example 6, doxorubicin 15 mg/Kg and/or paclitaxel 30 mg/Kg single dose i.p. at ~0.55 cm) is “regressed to half their size within one week of administration of doxorubicin, but then began to grow again”.
With `COc1cccc2c1C(=O)c1c(O)c3c(c(O)c1C2=O)C[C@@](O)(C(=O)CO)C[C@@H]3O[C@H]1C[C@H](N)[C@@H](O)[C@H](C)O1` [Epirubucin, reference compound], the LLC tumour response entry in test [1] is “slight delay in the growth”. Also, in the test on EL-4 target cells, the “effect of drug alone” value is on record as “negligible effect”. Moreover, the EL-4 tumour response result in the test with EL-4 tumours is “slight delay in the growth”.
Regarding `O=P1(N(CCCl)CCCl)NCCCO1` (stereo not drawn) [cyclophosphamide, reference compound], the “effect of drug alone” value in the test with EL-4 target cells is “small increases”. Also, the EL-4 tumour response entry in the test with EL-4 tumours is given as “little effect”.
`CN(Cc1cnc2nc(N)nc(N)c2n1)c1ccc(C(=O)N[C@@H](CCC(=O)O)C(=O)O)cc1` [methotrexate, reference compound]: the “effect of drug alone” value in the test with EL-4 target cells is “small increases”. In addition, the EL-4 tumour response entry in the test with EL-4 tumours is “no discernible effect”.
Turning to “bovine serum albumin: control protein in intestinal loop test [reference compound]”, in the test with IL-18, the “effect on the levels of IL-18 already detectable in the intestine” value is given as “negligible effect”.
For `CC(=O)O[C@H]1C(=O)[C@@]2(C)[C@H]([C@H](OC(=O)c3ccccc3)[C@]3(O)C[C@H](OC(=O)[C@H](O)[C@@H](NC(=O)c4ccccc4)c4ccccc4)C(C)=C1C3(C)C)[C@]1(OC(C)=O)CO[C@@H]1C[C@@H]2O` [paclitaxel, reference compound], the tumour response entry in the test with EL-4 tumours (Example 5, paclitaxel 30 mg/Kg i.p. at 0.5 cm tumour diameter) is reported as “grew completely unchecked”. For the same compound, in the test on EL-4 tumours (Example 15, paclitaxel 30 mg/Kg i.p. at ~0.6 cm, 20 g Lf per 2.4 Kg diet), the “tumour response to paclitaxel” value is listed as “completely resistant”.
